From US20240025862A1, “SUBSTITUTED N-PHENYLURACILS AND SALTS THEREOF, AND USE THEREOF AS HERBICIDAL ACTIVE SUBSTANCES” (Bayer Aktiengesellschaft, priority 2020, published 2024)

How the values were obtained:
Format in all cases: in vivo
[1] = test system: Polygonum convolvulus (POLCO); experiment: Post-emergence herbicidal action, greenhouse pot test
Outline: (§1)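 Activity was scored by eye about 3 weeks after treatment against untreated plants, where 100% means dead plants and 0% means no difference. Plants at the one-leaf stage received a foliar spray of WP or EC formulations in water plus 0.5% additive (600 l/ha, up to 20 g/ha). Plants were grown in sandy loam pots in a greenhouse for 2–3 weeks before spraying.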

[2] = test system: Amaranthus retroflexus (AMARE); experiment: as above; conditions: rated visually after about 3 weeks vs untreated controls, 100% = plants have died
Outline: as §1

[3] = test system: Pharbitis purpurea (PHBPU); experiment: as above
Outline: as §1

Veronica persica (VERPE) = experiment: as above
Outline: as §1

Viola tricolor (VIOTR) = experiment: as above
Outline: as §1

[4] = test system: Abutilon theophrasti (ABUTH); experiment: as above; conditions: rated visually after about 3 weeks vs untreated controls, 100% = plants have died
Outline: as §1

Avena fatua (AVEFA) = experiment: as above; conditions: 20 g/ha, rated visually after about 3 weeks vs untreated controls, 100% = plants have died
Outline: as §1

[5] = test system: Echinochloa crus-galli (ECHCG); experiment: Post-emergence herbicidal action, greenhouse pot test (also comparative test C)
Outline: (§2)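 Visual rating against untreated controls, about 3 weeks after spraying, from 0% (like control) to 100% (plants dead). Weeds were treated at the one-leaf stage, 2–3 weeks after sowing in sandy loam, with aqueous WP/EC spray containing 0.5% additive at 600 l/ha. Doses were ≤20 g/ha, or ≤5 g/ha for comparative test C.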

Setaria viridis (SETVI) = experiment: as above
Outline: as §2

[6] = test system: Matricaria inodora (MATIN); experiment: as above
Outline: as §2

[7] = test system: Alopecurus myosuroides (ALOMY); experiment: as above; conditions: rated visually after about 3 weeks vs untreated controls, 100% = plants have died
Outline: as §2

[8] = test system: Triticum aestivum (TRZAS); experiment: Post-emergence crop plant compatibility, greenhouse pot test; conditions: vs untreated controls
Outline: (§3)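 Visual % damage vs untreated controls, scored ~3 weeks post-spray (100% = dead, 0% = as control). Plants in sandy loam, greenhouse; treated at one-leaf stage, 2–3 wk after sowing. WP/EC, aqueous, 0.5% additive, 600 l/ha. Suffixes a/b/c = different dosages.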

Zea mays (ZEAMX) = experiment: as above; conditions: 1.25 g/ha, vs untreated controls
Outline: as §3

Oryza sativa (ORYSA) = experiment: Post-emergence crop plant compatibility, greenhouse pot test (also comparative test C); conditions: vs untreated controls
Outline: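 Visual damage versus untreated plants (0% = like control, 100% = plants died) was scored about 3 weeks after a post-emergence spray in greenhouse pots. Treatment: one-leaf stage, WP or EC in water at 600 l/ha with 0.5% additive; a/b/c mark different dosages on the same crop.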

Q: `Cn1c(C(F)(F)F)cc(=O)n(-c2cc(Oc3ccccc3OCC(=O)OCCOC(F)(F)F)c(Br)cc2F)c1=O` [I.8-41] was tested. Which “Post-emergence action against POLCO in %” value ([1]; dosage 1.25 g/ha) did it give?
A: 80%

Q: What about the “Post-emergence action against POLCO in %” value ([1]; dosage 5 g/ha) of the same molecule?
A: 90%

Q: And the “Post-emergence action against POLCO in %” value ([1]; dosage 20 g/ha)?
A: 100%

Q: And the “Post-emergence action at 1.25 g/ha against AMARE in %” value ([2]; 1.25 g/ha)?
A: 100%

Q: What about the “Post-emergence action at 5 g/ha against AMARE in %” value ([2]; 5 g/ha) of the same molecule?
A: 100%

Q: What about the “Post-emergence action at 20 g/ha against AMARE in %” value ([2]; 20 g/ha) of the same molecule?
A: 100%

Q: What about the “Post-emergence action against PHBPU in %” value ([3]; dosage 1.25 g/ha) of the same molecule?
A: 100%

Q: And the “Post-emergence action against PHBPU in %” value ([3]; dosage 5 g/ha)?
A: 100%

Q: What about the “Post-emergence action against PHBPU in %” value ([3]; dosage 20 g/ha) of the same molecule?
A: 100%

Q: And the “Post-emergence action against VERPE” value (Veronica persica (VERPE); 5 g/ha)?
A: 100%

Q: And the “Post-emergence action against VERPE” value (Veronica persica (VERPE); 20 g/ha)?
A: 100%

Q: And the “Post-emergence action against VIOTR” value (Viola tricolor (VIOTR); 1.25 g/ha)?
A: 100%

Q: And the “Post-emergence action against VIOTR” value (Viola tricolor (VIOTR); 5 g/ha)?
A: 100%

Q: What about the “Post-emergence action against VIOTR” value (Viola tricolor (VIOTR); 20 g/ha) of the same molecule?
A: 100%

Q: What about the “Post-emergence action at 1.25 g/ha against ABUTH in %” value ([4]; 1.25 g/ha) of the same molecule?
A: 80%

Q: And the “Post-emergence action at 5 g/ha against ABUTH in %” value ([4]; 5 g/ha)?
A: 100%

Q: What about the “Post-emergence action at 20 g/ha against ABUTH in %” value ([4]; 20 g/ha) of the same molecule?
A: 100%

Q: And the “Post-emergence action at 20 g/ha against AVEFA in %” value (Avena fatua (AVEFA))?
A: 80%

Q: What about the “Post-emergence action against ECHCG in %” value ([5]; dosage 5 g/ha) of the same molecule?
A: 90%

Q: And the “Post-emergence action against ECHCG in %” value ([5]; dosage 20 g/ha)?
A: 100%

Q: And the “Post-emergence action against SETVI” value (Setaria viridis (SETVI); 20 g/ha)?
A: 100%

Q: And the “Post-emergence action against SETVI in %” value (Setaria viridis (SETVI); dosage 1.25 g/ha)?
A: 100%

Q: What about the “Post-emergence action against SETVI in %” value (Setaria viridis (SETVI); dosage 5 g/ha) of the same molecule?
A: 100%

Q: And the “Post-emergence action against MATIN in %” value ([6]; dosage 1.25 g/ha)?
A: 90%

Q: What about the “Post-emergence action against MATIN in %” value ([6]; dosage 5 g/ha) of the same molecule?
A: 90%

Q: What about the “Post-emergence action against MATIN in %” value ([6]; dosage 20 g/ha) of the same molecule?
A: 100%

Q: What about the “Post-emergence action at 5 g/ha against ALOMY in %” value ([7]; 5 g/ha) of the same molecule?
A: 80%

Q: What about the “Post-emergence action at 20 g/ha against ALOMY in %” value ([7]; 20 g/ha) of the same molecule?
A: 100%

Q: What about the “Post-emergence action against TRZAS (crop plant compatibility)” value ([8]; 1.25 g/ha) of the same molecule?
A: 0%

Q: What about the “Post-emergence action against TRZAS (crop plant compatibility)” value ([8]; 5 g/ha) of the same molecule?
A: 20%

Q: And the “Post-emergence action against ZEAMX (crop plant compatibility)” value (Zea mays (ZEAMX))?
A: 20%

Q: And the “Post-emergence action against ORYSA (crop plant compatibility)” value (Oryza sativa (ORYSA); 1.25 g/ha)?
A: 0%

Q: What about the “Post-emergence action against ORYSA (crop plant compatibility)” value (Oryza sativa (ORYSA); 5 g/ha) of the same molecule?
A: 20%

Q: What does the source list for `COCC(C)OC(=O)COc1ccccc1Oc1cc(-n2c(=O)cc(C(F)(F)F)n(C)c2=O)c(F)cc1Cl` (stereo not shown) [I.7-94, 1-Methoxypropan-2-yl (2-{2-chloro-4-fluoro-5-[3-methyl-2,6-dioxo-4-(trifluoromethyl)-3,6-dihydropyrimidin-1(2H)-yl]phenoxy}phenoxy)acetate]?
A: pest or weed control at 20 g/ha ([1]; Fallopia convolvulus, 504 h, dosage 20 g/ha, read-out: Post-emergence action against POLCO in %): 100%; pest or weed control at 1.25 g/ha ([2]; Amaranthus retroflexus, 504 h, 1.25 g/ha, read-out: Post-emergence action at 1.25 g/ha against AMARE in %): 100%; pest or weed control at 5 g/ha ([2]; Amaranthus retroflexus, 504 h, 5 g/ha, read-out: Post-emergence action at 5 g/ha against AMARE in %): 100%; pest or weed control at 20 g/ha ([2]; Amaranthus retroflexus, 504 h, 20 g/ha, read-out: Post-emergence action at 20 g/ha against AMARE in %): 100%; pest or weed control at 1.25 g/ha ([3]; Ipomoea purpurea, 504 h, dosage 1.25 g/ha, read-out: Post-emergence action against PHBPU in %): 100%; pest or weed control at 5 g/ha ([3]; Ipomoea purpurea, 504 h, dosage 5 g/ha, read-out: Post-emergence action against PHBPU in %): 100%; pest or weed control at 20 g/ha ([3]; Ipomoea purpurea, 504 h, dosage 20 g/ha, read-out: Post-emergence action against PHBPU in %): 100%; pest or weed control at 1.25 g/ha (Veronica persica (VERPE); Veronica persica, 504 h, 1.25 g/ha, read-out: Post-emergence action against VERPE): 100%; pest or weed control at 5 g/ha (Veronica persica (VERPE); Veronica persica, 504 h, 5 g/ha, read-out: Post-emergence action against VERPE): 100%; pest or weed control at 20 g/ha (Veronica persica (VERPE); Veronica persica, 504 h, 20 g/ha, read-out: Post-emergence action against VERPE): 100%; pest or weed control at 1.25 g/ha (Viola tricolor (VIOTR); Viola tricolor, 504 h, 1.25 g/ha, read-out: Post-emergence action against VIOTR): 80%; pest or weed control at 5 g/ha (Viola tricolor (VIOTR); Viola tricolor, 504 h, 5 g/ha, read-out: Post-emergence action against VIOTR): 100%; pest or weed control at 20 g/ha (Viola tricolor (VIOTR); Viola tricolor, 504 h, 20 g/ha, read-out: Post-emergence action against VIOTR): 100%; pest or weed control at 1.25 g/ha ([4]; Abutilon theophrasti, 504 h, 1.25 g/ha, read-out: Post-emergence action at 1.25 g/ha against ABUTH in %): 100%; pest or weed control at 5 g/ha ([4]; Abutilon theophrasti, 504 h, 5 g/ha, read-out: Post-emergence action at 5 g/ha against ABUTH in %): 100%; pest or weed control at 20 g/ha ([4]; Abutilon theophrasti, 504 h, 20 g/ha, read-out: Post-emergence action at 20 g/ha against ABUTH in %): 100%; pest or weed control at 20 g/ha (Avena fatua (AVEFA); Avena fatua, 504 h, read-out: Post-emergence action at 20 g/ha against AVEFA in %): 80%; pest or weed control at 5 g/ha ([5]; Echinochloa crus-galli, 504 h, dosage 5 g/ha, read-out: Post-emergence action against ECHCG in %): 100%; pest or weed control at 20 g/ha ([5]; Echinochloa crus-galli, 504 h, dosage 20 g/ha, read-out: Post-emergence action against ECHCG in %): 100%; pest or weed control at 20 g/ha (Setaria viridis (SETVI); Setaria viridis, 504 h, 20 g/ha, read-out: Post-emergence action against SETVI): 100%; pest or weed control at 1.25 g/ha (Setaria viridis (SETVI); Setaria viridis, 504 h, dosage 1.25 g/ha, read-out: Post-emergence action against SETVI in %): 100%; pest or weed control at 5 g/ha (Setaria viridis (SETVI); Setaria viridis, 504 h, dosage 5 g/ha, read-out: Post-emergence action against SETVI in %): 100%; pest or weed control at 1.25 g/ha ([6]; Tripleurospermum inodorum, 504 h, dosage 1.25 g/ha, read-out: Post-emergence action against MATIN in %): 80%; pest or weed control at 5 g/ha ([6]; Tripleurospermum inodorum, 504 h, dosage 5 g/ha, read-out: Post-emergence action against MATIN in %): 80%; pest or weed control at 20 g/ha ([6]; Tripleurospermum inodorum, 504 h, dosage 20 g/ha, read-out: Post-emergence action against MATIN in %): 100%; pest or weed control at 5 g/ha ([7]; Alopecurus myosuroides, 504 h, 5 g/ha, read-out: Post-emergence action at 5 g/ha against ALOMY in %): 80%; pest or weed control at 20 g/ha ([7]; Alopecurus myosuroides, 504 h, 20 g/ha, read-out: Post-emergence action at 20 g/ha against ALOMY in %): 80%; Post-emergence action against TRZAS (crop plant compatibility) ([8]; 1.25 g/ha): 20%; Post-emergence action against ZEAMX (crop plant compatibility) (Zea mays (ZEAMX)): 10%; Post-emergence action against ORYSA (crop plant compatibility) (Oryza sativa (ORYSA); 1.25 g/ha): 0%; Post-emergence action against ORYSA (crop plant compatibility) (Oryza sativa (ORYSA); 5 g/ha): 20%
